According to PubChem BioAssay (NCI):
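Step 1: Grow cells in 96-well plates. Step 2: Expose to compound for 48 hours at 5 concentrations. Step 3: Interpolate endpoints linearly; if unreached, use highest concentration. TGI: total growth inhibition.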

Tests used:
Experiment in all cases: inhibition of tumour cell growth, NCI panel, 48 h
786-0 renal = system: 786-0 renal
HCT-15 colon = system: HCT-15 colon
LOX IMVI melanoma = system: LOX IMVI melanoma
M14 melanoma = system: M14 melanoma
MDA-MB-231 breast = system: MDA-MB-231 breast
NCI/ADR-RES ovarian = system: NCI/ADR-RES ovarian
OVCAR-4 ovarian = system: OVCAR-4 ovarian
PC-3 prostate = system: PC-3 prostate
RPMI-8226 leukemia = system: RPMI-8226 leukemia
SF-268 CNS = system: SF-268 CNS
SF-539 CNS = system: SF-539 CNS
SW-620 colon = system: SW-620 colon
UACC-257 melanoma = system: UACC-257 melanoma

Row | SMILES | TGI (786-0 renal) [µM] | TGI (HCT-15 colon) [µM] | TGI (LOX IMVI melanoma) [µM] | TGI (M14 melanoma) [µM] | TGI (MDA-MB-231 breast) [µM] | TGI (NCI/ADR-RES ovarian) [µM] | TGI (OVCAR-4 ovarian) [µM] | TGI (PC-3 prostate) [µM] | TGI (RPMI-8226 leukemia) [µM] | TGI (SF-268 CNS) [µM] | TGI (SF-539 CNS) [µM] | TGI (SW-620 colon) [µM] | TGI (UACC-257 melanoma) [µM]
1 | C/C(=N\NS(=O)(=O)c1ccc(C)cc1)C(CN(C)C)C(c1ccccc1)c1c(O)c2ccccc2oc1=O (stereo not drawn) | > 100 | > 100 | > 100 | > 100 | > 100 | > 100 | > 100 | > 100 | > 100 | > 100 | > 100 | > 100 | > 100
2 | CC(C)C[C@H](NC(=O)CCc1ccccc1)B(O)O | 57.5 | 38.1 | 16.7 | 24.7 | 36.2 | 49.2 | > 100 | > 100 | 6.11 | 59.4 | 15.4 | 19.1 | 37.8
3 | C[C@]12CC(c3ccccc3O1)C(C#N)C(=O)N2 (stereo partly drawn) | > 100 | > 100 | > 100 | > 100 | > 100 | > 100 | > 100 | > 100 | > 100 | > 100 | – | > 100 | > 100
4 | Nc1nc(Cl)cc(NCC2(CO)CCC2)n1 | > 100 | > 100 | > 100 | – | > 100 | > 100 | > 100 | > 100 | > 100 | > 100 | > 100 | > 100 | –
5 | Cc1[nH]n(-c2nc3c(c(=O)[nH]2)CCC3)c(=O)c1CCO | > 100 | > 100 | > 100 | > 100 | > 100 | > 100 | > 100 | > 100 | > 100 | > 100 | > 100 | > 100 | > 100
6 | C=CCNC(=O)/C(Cc1cc(Br)c(OC)c(Br)c1O)=N\O | 7.28 | 21.7 | 55 | 23.6 | 32.6 | 11.4 | 84.6 | > 100 | > 100 | 15.7 | 14.6 | 26.4 | 27.1
7 | COc1ccc(-c2c3c(n(C4OC(CO)C(O)C(O)C4O)c(=S)c2C#N)CC(C)(C)CC3=O)cc1 (stereo not drawn) | > 100 | > 100 | > 100 | > 100 | > 100 | > 100 | > 100 | > 100 | > 100 | > 100 | > 100 | – | > 100
8 | C=C(C)[C@@H]1CC[C@@H](C)[C@](O)([C@@H]2C[C@@H]([C@H](COC(=O)c3ccccc3)OC(=O)c3ccccc3)OC2=O)C1 | > 100 | > 100 | > 100 | > 100 | > 100 | > 100 | > 100 | > 100 | > 100 | > 100 | > 100 | > 100 | > 100
9 | Cc1cnc2[nH]c(-c3ccc(F)cc3)cc(=O)c2c1 | > 100 | > 100 | > 100 | > 100 | > 100 | > 87.5 | > 100 | > 100 | > 73.3 | > 100 | > 100 | > 100 | > 100
